In brackets after ≈: the same amount, converted by molar mass.
Legend:
hFAP (M39-A757) = hFAP (M39-A757) (Homo sapiens (Human), UniProt Q12884); experiment: hFAP binding assay (surface plasmon resonance); conditions: SPR, 20° C.; for hFAP Binding assay k(off) / hFAP Binding assay k(on): single cycle kinetics; for Kd: n = 1 or geometric mean n = 2-4
FAP [1] = biological target: FAP (Mus musculus (Mouse), UniProt P97321); experiment: FAP plasma inhibition assay, mouse plasma; type: biochemical; conditions: mouse plasma diluted 1:67, Ala-Pro-AMC 75 μM
Method: This assay was adapted from the method described in Example 237 for detection of FAP target engagement enzyme activity in plasma. Plasma (anticoagulant K2EDTA) was used as the enzyme source: Human plasma (Pooled from AZ Biobank), Mouse plasma (AZ AST Biobank), and Cynomolgus plasma (BioIVT, #NHP00PLK2FNN, lot CYN222895). 384-Well black fluotrack PS plates (Greiner 781076) were used. 20 μL diluted plasma (Cynomolgus and Human plasma dilution 1:40, Mouse plasma dilution 1:67) in buffer (PBS, 0.1% BSA) was added to 0.6 μL compounds (in DMSO). Compounds were tested using 10 CR, 3 fold dilution series from 500 nM FAC. Two replicates for each assay point were run on the same plate. A fluorescence blank read was taken before substrate addition. […] Plates were incubated for 40 min at rt in the dark. […] IC50 values were determined by plotting % inhibition versus log compound concentration.

[2] = biological target: Prolyl endopeptidase, Prolyl Oligopeptidase (hPREP) (Homo sapiens (Human), UniProt P48147); experiment: hPrep inhibition assay; type: biochemical; conditions: hPREP 0.6 nM, Z-Gly-Pro-amino-methylcoumarin 50 μM; read-out: PREP IC50
Method in brief: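 Fluorogenic read-out (340 nm excitation, 460 nm emission) after 20 min at rt, using 50 μM final Z-Gly-Pro-aminomethylcoumarin and 0.6 nM final enzyme, following 15 min compound preincubation. Buffer pH 7.5 with glutathione and Triton X-100. IC50 via one-site model on % inhibition vs log concentration.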

[3] = biological target: human Fibroblast activation protein alpha (hFAP) (Homo sapiens (Human), UniProt Q12884); experiment: hFAP inhibition assay (tight binders); type: biochemical; conditions: Ala-Pro-AMC 20 μM, n = 1 or geometric mean n = 2-6; also: hFAP 2.4 pM
Method: The plates were read on a PHERAstar® reader with excitation 340 nm and emission 460 nm. Data were analyzed in Genedata Screener®. IC50 values were determined by plotting % inhibition versus log compound concentration and using a one site dose response model.

[4] = Metabolic stability in human hepatocytes (hHep); type: in vitro ADME; conditions: n = 1 or geometric mean of n = 2
Kinetic solubility = conditions: kinetic from dmso stock
Method: Kinetic solubility was measured as described in Comput Aided Mol Des 2015, 29, 795.

Caco-2 cell permeability = conditions: human
Method: Caco-2 cell permeability was measured as described in Mol Pharm 2017, 14, 1601.

[5] = Metabolic stability in rat hepatocytes (rHep); conditions: n = 1 or geometric mean of n = 2-3
[6] = Metabolic stability in human liver microsomes (HLM); conditions: human
Method: Metabolic stability in HLM was measured as described in J Comput Aided Mol Des 2015, 29, 795.

FAP [7] = biological target: FAP (Homo sapiens (Human), UniProt Q12884); experiment: hFAP inhibition assay; type: biochemical; conditions: hFAP […], Ala-Pro-AMC 20 μM; n = 1 or geometric mean n = 2-3
Method in brief: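 Compounds (10-point, 3-fold dilutions from 50 μM top) were preincubated 15 min at rt in the dark with 0.48 nM hFAP in pH 7.4 Tris/NaCl/Chaps buffer. Reaction was started with substrate (40 μM solution) and ran 30 min at rt. Read by fluorescence (340/460 nm); IC50 from one-site fit.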

[8] = Solubility, kinetic solubility, n = 1 or average of n = 2-3
[9] = HLM CLint, n = 1 or average of n = 2-3

FAP (Mus musculus (Mouse), UniProt P97321), sequence (P97321 24-761): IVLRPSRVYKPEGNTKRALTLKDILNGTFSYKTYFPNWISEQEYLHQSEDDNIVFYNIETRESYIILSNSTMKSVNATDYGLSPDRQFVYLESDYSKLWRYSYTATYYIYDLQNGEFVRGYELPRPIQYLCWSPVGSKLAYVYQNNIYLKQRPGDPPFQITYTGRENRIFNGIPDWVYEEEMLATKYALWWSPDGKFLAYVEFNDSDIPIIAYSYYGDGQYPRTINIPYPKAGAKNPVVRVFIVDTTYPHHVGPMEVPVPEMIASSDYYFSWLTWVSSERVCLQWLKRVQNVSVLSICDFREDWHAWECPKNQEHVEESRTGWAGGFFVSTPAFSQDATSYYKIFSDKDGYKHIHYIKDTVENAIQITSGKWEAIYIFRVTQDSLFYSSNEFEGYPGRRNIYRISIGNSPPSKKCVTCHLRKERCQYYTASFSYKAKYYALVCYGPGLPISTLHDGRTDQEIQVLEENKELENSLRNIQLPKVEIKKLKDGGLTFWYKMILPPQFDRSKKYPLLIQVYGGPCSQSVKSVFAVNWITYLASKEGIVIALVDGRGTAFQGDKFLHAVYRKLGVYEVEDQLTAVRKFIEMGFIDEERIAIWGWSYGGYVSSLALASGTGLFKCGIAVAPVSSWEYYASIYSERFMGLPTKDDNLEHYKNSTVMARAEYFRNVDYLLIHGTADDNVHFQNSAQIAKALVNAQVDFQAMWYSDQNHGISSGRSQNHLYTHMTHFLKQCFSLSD
hFAP (M39-A757), sequence (Q12884 39-757): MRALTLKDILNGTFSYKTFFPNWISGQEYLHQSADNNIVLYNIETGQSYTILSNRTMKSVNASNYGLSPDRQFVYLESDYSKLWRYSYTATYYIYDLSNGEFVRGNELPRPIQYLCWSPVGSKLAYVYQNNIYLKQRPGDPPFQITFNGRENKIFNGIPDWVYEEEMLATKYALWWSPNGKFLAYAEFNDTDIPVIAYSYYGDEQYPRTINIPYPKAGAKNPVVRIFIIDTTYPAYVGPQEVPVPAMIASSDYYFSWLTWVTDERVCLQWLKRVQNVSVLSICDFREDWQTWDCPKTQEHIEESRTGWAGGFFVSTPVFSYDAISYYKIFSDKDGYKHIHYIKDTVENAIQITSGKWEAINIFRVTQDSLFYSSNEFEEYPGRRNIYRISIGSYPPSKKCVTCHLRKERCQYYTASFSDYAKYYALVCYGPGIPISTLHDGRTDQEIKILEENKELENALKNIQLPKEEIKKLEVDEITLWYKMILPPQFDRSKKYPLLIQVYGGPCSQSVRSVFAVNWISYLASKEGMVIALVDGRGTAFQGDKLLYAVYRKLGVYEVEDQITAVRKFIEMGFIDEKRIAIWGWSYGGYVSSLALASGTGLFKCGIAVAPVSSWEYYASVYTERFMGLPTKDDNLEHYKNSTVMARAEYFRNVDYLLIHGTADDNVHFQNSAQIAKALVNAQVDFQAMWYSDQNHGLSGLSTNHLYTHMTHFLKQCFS
FAP (Homo sapiens (Human), UniProt Q12884), sequence (Q12884 38-760): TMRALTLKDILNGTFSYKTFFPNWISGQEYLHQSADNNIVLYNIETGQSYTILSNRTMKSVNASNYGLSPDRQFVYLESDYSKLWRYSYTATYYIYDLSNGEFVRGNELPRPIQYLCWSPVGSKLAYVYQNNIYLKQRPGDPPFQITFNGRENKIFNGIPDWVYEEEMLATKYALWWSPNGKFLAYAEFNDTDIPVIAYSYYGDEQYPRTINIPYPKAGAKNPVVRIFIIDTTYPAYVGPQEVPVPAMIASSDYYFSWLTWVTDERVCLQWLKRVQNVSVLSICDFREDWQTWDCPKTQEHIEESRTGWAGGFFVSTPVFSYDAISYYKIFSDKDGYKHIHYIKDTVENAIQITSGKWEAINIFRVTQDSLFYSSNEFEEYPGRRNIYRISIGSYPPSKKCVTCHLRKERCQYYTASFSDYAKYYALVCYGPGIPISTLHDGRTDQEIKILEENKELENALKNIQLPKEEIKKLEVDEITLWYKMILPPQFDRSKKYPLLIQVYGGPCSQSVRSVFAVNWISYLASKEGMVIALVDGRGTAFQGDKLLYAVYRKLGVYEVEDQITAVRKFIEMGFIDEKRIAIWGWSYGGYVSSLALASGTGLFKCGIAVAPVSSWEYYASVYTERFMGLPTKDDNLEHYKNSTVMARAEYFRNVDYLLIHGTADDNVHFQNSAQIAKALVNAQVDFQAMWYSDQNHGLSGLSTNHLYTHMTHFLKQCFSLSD
human Fibroblast activation protein alpha (hFAP), sequence (Q12884 38-760): as above
Prolyl endopeptidase, Prolyl Oligopeptidase (hPREP), sequence (P48147 whole entry): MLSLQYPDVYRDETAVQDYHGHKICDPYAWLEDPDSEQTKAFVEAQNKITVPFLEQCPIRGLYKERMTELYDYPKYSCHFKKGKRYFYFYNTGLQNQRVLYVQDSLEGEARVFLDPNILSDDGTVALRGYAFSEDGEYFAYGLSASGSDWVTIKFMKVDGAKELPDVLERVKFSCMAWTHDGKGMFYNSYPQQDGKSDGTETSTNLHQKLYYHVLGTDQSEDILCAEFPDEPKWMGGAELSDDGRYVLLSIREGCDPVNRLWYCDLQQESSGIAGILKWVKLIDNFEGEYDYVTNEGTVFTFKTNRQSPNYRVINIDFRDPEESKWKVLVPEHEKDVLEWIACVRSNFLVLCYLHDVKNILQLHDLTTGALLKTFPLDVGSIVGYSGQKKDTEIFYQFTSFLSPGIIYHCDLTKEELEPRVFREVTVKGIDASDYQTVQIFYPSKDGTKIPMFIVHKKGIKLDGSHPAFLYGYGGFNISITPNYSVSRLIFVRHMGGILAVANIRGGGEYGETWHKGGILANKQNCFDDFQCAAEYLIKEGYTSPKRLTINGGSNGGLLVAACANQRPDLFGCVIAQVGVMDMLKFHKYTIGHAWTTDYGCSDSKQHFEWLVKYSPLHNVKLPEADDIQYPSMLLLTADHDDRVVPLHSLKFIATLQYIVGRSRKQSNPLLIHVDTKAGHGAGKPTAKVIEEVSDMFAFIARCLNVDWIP

| SMILES | hFAP Binding assay k(off) (hFAP (M39-A757)) [s⁻¹] | hFAP Binding assay k(on) (hFAP (M39-A757)) [M⁻¹ s⁻¹] | IC50 (FAP [1]) [nM] | IC50 [2] [nM] | IC50 [3] [nM] | hHep CLint [4] [μL/min/1E6] | Papp A→B (Caco-2 cell permeability) [×10⁻⁶ cm/s] | Papp B→A (Caco-2 cell permeability) [×10⁻⁶ cm/s] | efflux ratio (Caco-2 cell permeability) | rHep CLint [5] [μL/min/1E6] | Kd (hFAP (M39-A757)) [nM] | solubility (Kinetic solubility; [8]) [µM] | microsomal CLint [6, 9] [µL/min/mg] | IC50 (FAP [7]) [nM] | solubility (Kinetic solubility) [µM] | Papp (Caco-2 cell permeability) [×10⁻⁶ cm/s] | microsomal CLint [6] [µL/min/mg] |
| --- | --- | --- | --- | --- | --- | --- | --- | --- | --- | --- | --- | --- | --- | --- | --- | --- | --- |
| C[C@@H]1OCCN(c2ccc3nccc(C(=O)NCC(=O)N4CSC[C@H]4C#N)c3c2)[C@H]1C [Example 82, N-(2-((R)-4-Cyanothiazolidin-3-yl)-2-oxoethyl)-6-((2S,3S)-2,3-dimethyl-morpholino)quinoline-4-carboxamide] | 0.000071 | 1400000 | 0.4 | 930 | – | – | – | – | – | – | – | – | – | – | – | – | – |
| N#C[C@@H]1CSCN1C(=O)CNC(=O)c1ccnc2ccc(N3CCC4(CC3)OCCO4)cc12 [Example 228, (R)—N-(2-(4-cyanothiazolidin-3-yl)-2-oxoethyl)-6-(1,4-dioxa-8-azaspiro[4.5]decan-8-yl)quinoline-4-carboxamide] | – | – | – | 1200 | 0.087 | <1 | 25 | 27 | 0.9 | 9 | – | – | – | – | 879 (≈ 411 µg/mL) | 0.9 | < 3 |
| N#C[C@@H]1CSCN1C(=O)CNC(=O)c1ccnc2ccc(N3CCCCO3)cc12 [Example 1, (R)—N-(2-(4-Cyanothiazolidin-3-yl)-2-oxoethyl)-6-(1,2-oxazinan-2-yl)-quinoline-4-carboxamide] | 0.00014 | 730000 | – | 410 | 0.099 | <1 | 4.7 | 29 | 6.1 | 4.9 | 0.18 | > 1000 | 14 | – | – | – | – |
| COC1(C)CCN(c2ccc3nccc(C(=O)NCC(=O)N4CSC[C@H]4C#N)c3c2)CC1 [Example 42, (R)—N-(2-(4-Cyanothiazolidin-3-yl)-2-oxoethyl)-6-(4-methoxy-4-methylpiperidin-1-yl)quinoline-4-carboxamide] | 0.000054 | 1800000 | – | 880 | 0.053 | 2.7 | 2.8 | 33 | 12 | 7.6 | 0.03 | – | 21 | – | – | – | – |
| Cc1nn(C2CCOCC2)c(C)c1-c1ccc2nccc(C(=O)NCC(=O)N3CSC[C@H]3C#N)c2c1 [Example 172, (R)—N-(2-(4-Cyanothiazolidin-3-yl)-2-oxoethyl)-6-(3,5-dimethyl-1-(tetrahydro-2H-pyran-4-yl)-1H-pyrazol-4-yl)quinoline-4-carboxamide] | 0.000076 | 2400000 | 0.6 | 540 | – | – | – | – | – | – | – | – | – | – | – | – | – |
| Cc1noc(C)c1-c1ccc2nccc(C(=O)NCC(=O)N3CSC[C@H]3C#N)c2c1 [Example 216, (R)—N-(2-(4-Cyanothiazolidin-3-yl)-2-oxoethyl)-6-(3,5-dimethylisoxazol-4-yl)quinoline-4-carboxamide] | 0.0009 | 5200000 | – | 190 | 1.7 | – | 0.62 | 40 | 65 | 17 | 0.27 | 710 (≈ 299 µg/mL) | 58 | 2.4 | – | – | – |
| N#C[C@@H]1CSCN1C(=O)CNC(=O)c1ccnc2ccc(-c3ccnc(F)c3)cc12 [Example 124, (R)—N-(2-(4-Cyanothiazolidin-3-yl)-2-oxoethyl)-6-(2-fluoropyridin-4-yl)quinoline-4-carboxamide] | 0.00028 | 3000000 | – | 220 | 0.055 | – | 0.65 | 39 | 59 | 14 | 0.094 | 38 (≈ 16 µg/mL) | 12 | 0.24 | – | – | – |
| Cc1ccc(-c2ccc3nccc(C(=O)NCC(=O)N4CSC[C@H]4C#N)c3c2)cn1 [Example 177, (R)—N-(2-(4-Cyanothiazolidin-3-yl)-2-oxoethyl)-6-(6-methylpyridin-3-yl)-quinoline-4-carboxamide] | 0.000058 | 100000 | – | 360 | 0.11 | – | 1.3 | 22 | 17 | 7.4 | 0.56 | 40 (≈ 16.7 µg/mL) | 13 | 0.29 | – | – | – |
| Cc1cc(N2CCOCC2)cc2c(C(=O)NCC(=O)N3CSC[C@H]3C#N)ccnc12 [Example 9] | – | – | 0.6 | – | – | – | – | – | – | – | – | – | – | – | – | – | – |
| CC1(F)CN(c2ccc3nccc(C(=O)NCC(=O)N4CSC[C@H]4C#N)c3c2)C1 [Example 24, (R)—N-(2-(4-Cyanothiazolidin-3-yl)-2-oxoethyl)-6-(3-fluoro-3-methyl-azetidin-1-yl)quinoline-4-carboxamide] | 0.00048 | 25000000 | 0.4 | 510 | – | – | – | – | – | – | – | – | – | – | – | – | – |

Continued by falling IC50 [2], values first:

| hFAP Binding assay k(off) (hFAP (M39-A757)) [s⁻¹] | hFAP Binding assay k(on) (hFAP (M39-A757)) [M⁻¹ s⁻¹] | IC50 (FAP [1]) [nM] | IC50 [2] [nM] | IC50 [3] [nM] | hHep CLint [4] [μL/min/1E6] | Papp A→B (Caco-2 cell permeability) [×10⁻⁶ cm/s] | Papp B→A (Caco-2 cell permeability) [×10⁻⁶ cm/s] | efflux ratio (Caco-2 cell permeability) | rHep CLint [5] [μL/min/1E6] | Kd (hFAP (M39-A757)) [nM] | solubility (Kinetic solubility; [8]) [µM] | microsomal CLint [6, 9] [µL/min/mg] | IC50 (FAP [7]) [nM] | SMILES | solubility (Kinetic solubility) [µM] | Papp (Caco-2 cell permeability) [×10⁻⁶ cm/s] | microsomal CLint [6] [µL/min/mg] |
| --- | --- | --- | --- | --- | --- | --- | --- | --- | --- | --- | --- | --- | --- | --- | --- | --- | --- |
| 0.00014 | 440000 | 0.8 | 3600 | – | – | – | – | – | – | – | – | – | – | CC1(C)CCN(c2ccc3nccc(C(=O)NCC(=O)N4CSC[C@H]4C#N)c3c2)C(=O)O1 [Example 112, (R)—N-(2-(4-Cyanothiazolidin-3-yl)-2-oxoethyl)-6-(6,6-dimethyl-2-oxo-1,3-oxazinan-3-yl)quinoline-4-carboxamide] | – | – | – |
| 0.000054 | 110000 | 0.2 | 940 | – | – | – | – | – | – | – | – | – | – | N#C[C@@H]1CSCN1C(=O)CNC(=O)c1ccnc2ccc(-c3cnn(C4CCOCC4)c3)cc12 [Example 173, (R)—N-(2-(4-Cyanothiazolidin-3-yl)-2-oxoethyl)-6-(1-(tetrahydro-2H-pyran-4-yl)-1H-pyrazol-4-yl)quinoline-4-carboxamide] | – | – | – |
| 0.00012 | 1400000 | 0.4 | 760 | – | – | – | – | – | – | – | – | – | – | N#C[C@@H]1CSCN1C(=O)CNC(=O)c1ccnc2ccc(-c3cnc4n3CCCC4)cc12 [Example 175, (R)—N-(2-(4-Cyanothiazolidin-3-yl)-2-oxoethyl)-6-(5,6,7,8-tetrahydroimidazo[1,2-a]pyridin-3-yl)quinoline-4-carboxamide] | – | – | – |
| 0.00066 | 5400000 | – | 110 | 0.24 | – | 0.57 | 26 | 45 | 11 | 0.15 | 960 (≈ 401 µg/mL) | 27 | 0.45 | Cc1ncccc1-c1ccc2nccc(C(=O)NCC(=O)N3CSC[C@H]3C#N)c2c1 [Example 128, (R)—N-(2-(4-Cyanothiazolidin-3-yl)-2-oxoethyl)-6-(2-methylpyridin-3-yl)-quinoline-4-carboxamide] | – | – | – |
| 0.00026 | 3200000 | 0.2 | 84 | – | – | – | – | – | – | – | – | – | – | N#C[C@@H]1CSCN1C(=O)CNC(=O)c1ccnc2ccc(-c3ccn[nH]3)cc12 [Example 196, (R)—N-(2-(4-Cyanothiazolidin-3-yl)-2-oxoethyl)-6-(1H-pyrazol-5-yl)-quinoline-4-carboxamide] | – | – | – |
